# Measured values as given in ChEMBL document CHEMBL1130495, “Benzoylphenoxy analogs of isoprenoid diphosphates as photoactivatable substrates for bacterial prenyltransferases” (Bioorg Med Chem Lett, 1997).
# What was measured:
# [1] = system: Farnesyl pyrophosphate synthase (Geobacillus stearothermophilus); experiment: Percent inhibition against farnesyl diphosphate synthase (FPS) at concentration of 250 uM
# [2] = Activity as substrate for FPS relative to control; assay type: functional
# [3] = system: Geobacillus stearothermophilus; experiment: Percent inhibition against prenyltransferases of Undecaprenyl pyrophosphate synthetase (UPS) at concentration of 32 uM
# [4] = system: Geobacillus stearothermophilus; experiment: Percent inhibition against prenyltransferases of Undecaprenyl pyrophosphate synthetase (UPS) at concentration of 125 uM
# [5] = Activity as substrate for Hex PS relative to control; assay type: functional
# Micrococcus luteus [6] = experiment: Percent inhibition against prenyltransferases of hexaprenyl diphosphate synthase (Hex PS) at concentration of 50 uM
# [7] = system: Farnesyl pyrophosphate synthase (Geobacillus stearothermophilus); experiment: Percent inhibition against prenyltransferases of farnesyl diphosphate synthase (FPS) at concentration of 125 uM
# [8] = system: Geobacillus stearothermophilus; experiment: Percent inhibition against prenyltransferases of Undecaprenyl pyrophosphate synthetase (UPS) at concentration of 16 uM
# Micrococcus luteus [9] = experiment: Percent inhibition against prenyltransferases of hexaprenyl diphosphate synthase (Hex PS) at concentration of 125 uM
# Micrococcus luteus [10] = experiment: Percent inhibition against prenyltransferases of hexaprenyl diphosphate synthase (Hex PS) at concentration of 250 uM
# [11] = Activity at concentration of 125 uM relative to HexPS for 5 min; assay type: functional
# [12] = system: Farnesyl pyrophosphate synthase (Geobacillus stearothermophilus); experiment: Percent inhibition against prenyltransferases of farnesyl diphosphate synthase (FPS) at concentration of 50 uM
# [13] = Activity at concentration of 714 uM relative to FPS for 30 min; assay type: functional
# [14] = Activity as substrate for UPS relative to control; assay type: functional
# [15] = Activity at concentration of 357 uM relative to FPS for 120 min; assay type: functional
# [16] = system: Farnesyl pyrophosphate synthase (Geobacillus stearothermophilus); experiment: Percent inhibition against prenyltransferases of farnesyl diphosphate synthase (FPS) at concentration of 250 uM
# [17] = Activity at concentration of 125 uM relative to HexPS for 15 min; assay type: functional
# [18] = Activity at concentration of 1428 uM relative to FPS for 30 min; assay type: functional
# [19] = Activity at concentration of 250 uM relative to HexPS for 15 min; assay type: functional
# [20] = Activity at concentration of 250 uM relative to HexPS for 5 min; assay type: functional
# [21] = Activity at concentration of 357 uM relative to FPS for 30 min; assay type: functional
# [22] = Activity at concentration of 357 uM relative to FPS for 60 min; assay type: functional
inhibition [3] [%],inhibition [4] [%],inhibition (Micrococcus luteus [6]) [%],inhibition [7] [%],inhibition [8] [%],inhibition (Micrococcus luteus [9]) [%],inhibition (Micrococcus luteus [10]) [%],inhibition [12] [%],inhibition [16] [%],SMILES,Relative activity [2],Relative activity [5],Relative activity [11],Relative activity [13],Relative activity [14],Relative activity [15],Relative activity [17],Relative activity [18],Relative activity [19],Relative activity [20],Relative activity [21],also measured
22.5,68,3.1,14.6,12.5,3.5,10.6,–,–,C/C(=C\COP(=O)(O)OP(=O)(O)O)COc1cccc(C(=O)c2ccccc2)c1,0.22,0,–,–,–,–,–,–,–,–,–,inhibition [1]: 19.8%
53,63,14.4,94.4,29,49.5,86.4,84.4,95.5,C/C(=C\COP(=O)(O)OP(=O)(O)O)CC/C=C(\C)COc1ccc(C(=O)c2ccccc2)cc1,0.78,46.4,30.7,64.4,49.1,17,9.2,36.2,4.3,9.8,67.3,Relative activity [22]: 48.1
58,63,9.2,94.9,38,37,80.5,86,96.1,C/C(=C\COP(=O)(O)OP(=O)(O)O)CC/C=C(\C)COc1cccc(C(=O)c2ccccc2)c1,1.83,21.6,32.5,61.2,55.7,37,10.8,75.9,1.9,5.5,62.2,Relative activity [22]: 66.6
17.5,57,8.8,24.5,12.5,23.4,37,–,27.6,C/C(=C\COP(=O)(O)OP(=O)(O)O)COc1ccc(C(=O)c2ccccc2)cc1,0.06,5.7,–,–,–,–,–,–,–,–,–,–
